Measured values reported in article PMC9896891 (International Journal of Biological Macromolecules, 2023).
Structures can show the parent of a compound that is named as a salt. Where two headings read alike, the source gives them in different places.

How the values were obtained:
SARS-CoV-2 [1] = assay type: cell-based
[2] = biological target: T1, SARS-CoV-2 Main protease (M^pro) (Severe acute respiratory syndrome coronavirus 2, UniProt P0DTD1); assay type: binding
[3] = biological target: T1, SARS-CoV-2 Main protease (M^pro); test: biochemical; assay type: binding
SARS-CoV-2 [4] = test: Treatment points; assay type: cell-based; conditions: Vero cells, 48 h
[5] = screen of 156 drugs and natural compounds
[6] = relative to M^pro alone (53.5 ± 1 °C)
[7] = compound 8, relative to H2–2/8/9

SMILES: Cc1cccc(C)c1OCC(C)N (centres unmarked) [Compound 4, Mexiletine hydrochloride]
- % Reduction in viral plaques (SARS-CoV-2 [1]): 75.5%
- Interaction with M^pro in STD-NMR spectroscopy [2]: interacting
- Relative STD saturation, H-6/H-8 [2]: 86.87%
- Relative STD saturation, aromatic H-7 [2]: 100%
- Relative STD saturation, methyl H-3 [2]: 20%
- Kd [3]: ~21 µM
- Modulation of Tm of M^pro [3]: +2.9 °C

SMILES: CCN(CC)CCCC(C)Nc1ccnc2cc(Cl)ccc12 (centres unmarked) [Compound 11, Chloroquine phosphate]
- % Reduction in viral plaques (SARS-CoV-2 [1]; 41.5 μM, Vero cells): 63.2%
- % Reduction in viral plaques (SARS-CoV-2 [1]; 83 μM, Vero cells): 100%

SMILES: Cc1cccc(Nc2ccccc2C(=O)O)c1C [Compound 2, Mefenamic acid]
- % Reduction in viral plaques (SARS-CoV-2 [1]; 83 μM, Vero cells): 81–88%
- Relative STD saturation, H3–16 ([2]; compound 2, largest STD integral, reference): 100%
- Relative STD saturation, H3–15 ([2]; compound 2, relative to H3–16): 90.7%
- Interaction with M^pro in STD-NMR spectroscopy [2, 5]: interacting
- Kd [3]: ~15 µM
- Modulation of Tm of M^pro [3, 6]: +2.9 °C

SMILES: COc1ccc2c(c1)[C@]13CCCC[C@@H]1[C@H](C2)N(C)CC3 [Compound 9, Dextromethorphan]
- Therapeutic Effect, Log10 of Fold Change (SARS-CoV-2 [4]; 83 μM): 2.11
- % Reduction in viral plaques (SARS-CoV-2 [1]; 83 μM, Vero cells): 81–88%
- Relative STD saturation, 2H-16 ([2]; compound 9, reference proton): highest saturation
- Relative STD saturation, H-6 ([2]; compound 9, relative to 2H-16): 95%
- Relative STD saturation, aromatic H-10 ([2]; compound 9, relative to 2H-16): 70.6%
- Relative STD saturation, methyl 3H-18 ([2]; compound 9, relative to 2H-16): 30.8%
- Relative STD saturation, methyl 3H-20 ([2]; compound 9, relative to 2H-16): 12.8%
- Interaction with M^pro in STD-NMR spectroscopy [2, 5]: interacting

SMILES: CC(C(=O)O)c1ccc(-c2ccccc2)c(F)c1 (centres unmarked) [Compound 7, Flurbiprofen]
- % Reduction in viral plaques (SARS-CoV-2 [1]; 83 μM, Vero cells): 59.09%
- Relative STD saturation, methyl H-1 ([2]; compound 7, highest integral, reference): 100%
- Relative STD saturation, H-2 ([2]; compound 7, relative to H-1): 44.10%
- Interaction with M^pro in STD-NMR spectroscopy [2, 5]: interacting
- Kd [3]: ~66 µM

SMILES: COc1ccc([C@@H]2Sc3ccccc3N(CCN(C)C)C(=O)[C@@H]2OC(C)=O)cc1 [Compound 1, Diltiazem hydrochloride]
- Therapeutic Effect, Log10 of Fold Change (SARS-CoV-2 [4]; 42.5 μM): 2.00
- Therapeutic Effect, Log10 of Fold Change (SARS-CoV-2 [4]; 83 μM): 2.02
- % Reduction in viral plaques (SARS-CoV-2 [1]; 83 μM, Vero cells): 81–88%
- Relative STD saturation, C-4 methyl protons (H3–4) ([2]; compound 1, largest STD integral, reference): 100%
- Relative STD saturation, H3–28/H3–29 ([2]; compound 1, relative to H3–4): 31.99%
- Interaction with M^pro in STD-NMR spectroscopy [2, 5]: interacting
- Kd [3]: ~44 µM

SMILES: NC12CC3CC(CC(C3)C1)C2 [Compound 8, Amantadine hydrochloride]
- % Reduction in viral plaques (SARS-CoV-2 [1]; 83 μM, Vero cells): 77.27%
- Relative STD saturation, H2–2, H2–8, H2–9 ([2]; compound 8, highest STD integral, reference): 100%
- Relative STD saturation, H2–4, H2–6, H2–10 [2, 7]: 59–64%
- Relative STD saturation, H-3, H-5, H-7 [2, 7]: 78%
- Interaction with M^pro in STD-NMR spectroscopy [2, 5]: interacting
- Modulation of Tm of M^pro [3, 6]: +2.9 °C

SMILES: CCCCc1nc(Cl)c(CO)n1Cc1ccc(-c2ccccc2-c2nn[nH]n2)cc1 [Compound 3, Losartan potassium]
- % Reduction in viral plaques (SARS-CoV-2 [1]; 83 μM, Vero cells): 54.54%
- Relative STD saturation, H2–7 ([2]; compound 3, largest STD integral, reference): 100%
- Relative STD saturation, H2–8 ([2]; compound 3, relative to H2–7): 45.22%
- Relative STD saturation, H2–9 ([2]; compound 3, relative to H2–7): 42.15%
- Relative STD saturation, H3–10 ([2]; compound 3, relative to H2–7): 31.49%
- Interaction with M^pro in STD-NMR spectroscopy [2, 5]: interacting
- Kd [3]: ~64 µM

SMILES: C[C@@H]1C[C@H]2[C@@H]3CCC4=CC(=O)C=C[C@]4(C)[C@@]3(F)[C@@H](O)C[C@]2(C)[C@@]1(O)C(=O)CO [Compound 12, Dexamethasone]
- % Reduction in viral plaques (SARS-CoV-2 [1]; 83 μM, Vero cells): 77.27%
- Relative STD saturation, Ha-6 ([2]; compound 12, highest STD integral, reference): 100%
- Relative STD saturation, Ha-7 ([2]; compound 12, relative to Ha-6): 58.8%
- Relative STD saturation, Hb-6 ([2]; compound 12, relative to Ha-6): 54.8%
- Relative STD saturation, Hb-7 ([2]; compound 12, relative to Ha-6): 18.77%
- Relative STD saturation, methyl H3–19 ([2]; compound 12, relative to Ha-6): 4.13%
- Modulation of Tm of M^pro [3, 6]: +2.9 °C

SMILES: CCC(CC)COC(=O)[C@H](C)N[P@](=O)(OC[C@H]1O[C@@](C#N)(c2ccc3c(N)ncnn23)[C@H](O)[C@@H]1O)Oc1ccccc1 [Compound 13, Remdesivir]
- % Reduction in viral plaques (SARS-CoV-2 [1]; 83 μM, Vero cells): 81–88%
- Relative STD saturation, H-37 ([2]; compound 13, highest STD integral, reference): 100%
- Relative STD saturation, H-18/H-22 ([2]; compound 13, relative to H-37): 64.95%
- Relative STD saturation, H-19/H-21 ([2]; compound 13, relative to H-37): 69.88%
- Relative STD saturation, H-20 ([2]; compound 13, relative to H-37): 55.82%
- Relative STD saturation, H-34 ([2]; compound 13, relative to H-37): 78.86%
- Relative STD saturation, H-35 ([2]; compound 13, relative to H-37): 80.79%
